Data published in patent US8138191B2, “Inhibitor compounds and cancer treatment methods” (Critical Outcome Technologies Inc., priority 2007, dated 2012).
Read-outs that look alike come from different tables or passages of the source.

Key:
[1] = tested on: SHP77; assay: in vitro IC50 against cancer cell lines, SHP77; assay type: cell-based; conditions: Homo sapiens, 72 h; SHP77, SCLC, 3 days
Experimental: (§1) Briefly, cells were plated in plastic tissue culture plates and grown under standard conditions for each cell line, in carbon dioxide/oxygen atmosphere in plastic tissue culture plates, in the presence of COTI-2 or COTI-219 compounds at 35° C. for 3 days. Control cultures were treated with vehicle minus compound. Cells were counted after 3 days in culture and at a cell density of no more than 80%. The following cell lines, obtained from the National Cancer Institute, were tested: human SCLC cell lines DMS153, DMS114, SHP77; human NSCLC cell lines H226, A460, A560; human breast cancer cell lines T47D, MCF7; human colon cancer cell line HT29; and, human Leukemia cell lines K562, HL60.

[2] = tested on: T47D; assay: in vitro IC50 against cancer cell lines, T47D; assay type: cell-based; conditions: Homo sapiens, 72 h, Breast Cancer, 3 days
Experimental: as §1

[3] = tested on: MCF7; assay: in vitro IC50 against cancer cell lines, MCF7; assay type: cell-based; conditions: Homo sapiens, 72 h; MCF7, Breast Cancer, 3 days
Experimental: as §1

[4] = tested on: HT29; assay: in vitro IC50 against cancer cell lines, HT29; assay type: cell-based; conditions: Homo sapiens, HT-29, 72 h; HT29, Colorectal Cancer, 3 days
Experimental: as §1

[5] = tested on: K562; assay: in vitro IC50 against cancer cell lines, K562; assay type: cell-based; conditions: Homo sapiens, 72 h; K562, Leukemia, 3 days
Experimental: as §1

[6] = tested on: HL60; assay: in vitro IC50 against cancer cell lines, HL60; assay type: cell-based; conditions: Homo sapiens, HL-60, 72 h; HL60, Leukemia, 3 days
Experimental: as §1

[7] = tested on: SHP-77 human SCLC cell line tumor xenografts; assay: Nude mouse model of human SCLC, SHP-77 xenografts; assay type: in vivo; conditions: IP on alternate days from Day 3, 31 days
Experimental: The nude mouse model of human SCLC was used to evaluate the in vivo efficacy of compounds of the present invention in comparison with several known chemotherapeutic agents. Nude mice were obtained form the National Cancer Institute and the SHP-77 human SCLC cell line was chosen for metastatic tumor xenografts. The control group consisted of 10 animals, each of which were administered bilateral thigh injections of a prescribed volume of tumor cells. There were 6 treatment groups, each containing 5 animals: COTI-2, COTI-4, COTI-219, Taxotere® (docetaxel), Cisplatin® (cis-diamminedichloroplatinum) and Tarceva® (erlotinib) The therapeutic agent was administered by intraperitoneal (IP) injection on alternate days beginning on Day 3 post tumor cell injection. Each animal in a treatment group was administered bilateral thigh injections with the same prescribed volume of tumor cells as the control animals. Treatment continued for 31 days, following which the animals were euthanized and tissues were collected for subsequent analysis.

[8] = tested on: DMS153; assay: Resistance testing over 5 generations, DMS153; assay type: cell-based, human; conditions: DMS153, 5 generations
Experimental: (§2) In order to evaluate the induction of resistance in vitro, compounds according to the invention were tested in head to head comparisons against conventional therapeutic agents Cisplatin® and Taxotere®. The compound designated COTI-4 (which is the subject of Applicant's co-pending U.S. provisional patent application entitled “Composition and Method for Treatment” filed Dec. 26, 2007) was also tested. The structure for COTI-4 is:
(§3) IC50 values were obtained using methods known to persons skilled in the art with two different human SCLC cell lines (DMS153 and SHP77) obtained from the National Cancer Institute. […] The procedure was repeated for a total of 5 generations. Emerging resistance was identified by increasing IC50 values in successive generations.

[9] = tested on: SHP77; assay: Resistance testing over 5 generations, SHP77; assay type: cell-based, human; conditions: SHP77, 5 generations
Experimental: as §2, §3

[10] = tested on: H292; assay: CellTiter-Blue growth inhibition, single agents and combinations, H292; assay type: cell-based; conditions: Homo sapiens, read-out: Mean IC50, single agent
Experimental: (§4) The stock concentration was further diluted to 1 mM and added to a drug plate. […] Following dilution, 2 μl of test agent was transferred to the corresponding wells of a cell-containing 96-well plate with 198 μl of growth media. Tarceva® (erlotinib) was supplied by LC Labs (Woburn, Mass.).
(§5) Viable cell numbers were quantified by the CellTiter-Blue® cell viability assay, which measures the conversion of the indicator dye (resazurin) to resorufin, an indicator of cell viability. Experiments were repeated at least twice with the same concentrations to determine growth inhibitory activity.
(§6) The CI, a numerical value calculated as described in equation A, also provides a quantitative measure of the extent of drug interaction. A CI of less than, equal to, and more than 1 indicates synergy, additivity, and antagonism, respectively. CI=(CAx/ICx,A)+(CB,x/ICx,B) Equation A: Where CA,x and CB,x, are the concentrations of drug A and drug B used in combination to achieve x % drug effect. ICx,A and ICx,B are the concentrations for single agents to achieve the same effect.

[11] = tested on: HCT-116; assay: CellTiter-Blue growth inhibition, single agents and combinations, HCT-116; assay type: cell-based; conditions: Homo sapiens, read-out: Mean IC50, single agent
Experimental: as §4
as §5, with “Cells were grown to 70% confluency, trypsinized, counted, and seeded in 96-well flat-bottom plates at a final concentration of 2.5×10^3−5×10^3 cells/well (Day 0). […] Viable” for “Viable”
as §6

[12] = tested on: COLO-205; assay: Tumor cell proliferation, single agents and combinations, COLO-205; assay type: cell-based, human; conditions: Homo sapiens
Experimental: (§7) The 3 cell lines were treated as follows:
(§8) Day 1: Cells were plated in 96-well flat bottom plates (VWR, Mississauga, ON, Canada) and allowed to adhere overnight.
(§9) All treated and control cells were, therefore, exposed to a 1% DMSO concentration plus the desired concentration of COTI-2.
as §6

[13] = tested on: HCT-15; assay: Tumor cell proliferation, single agents and combinations, HCT-15; assay type: cell-based; conditions: Homo sapiens
Experimental: as §7, §8, §9, §6

[14] = tested on: SW620; assay: Tumor cell proliferation, single agents and combinations, SW620; assay type: cell-based, human; conditions: Homo sapiens
Experimental: as §7, §8, §9, §6

[15] = tested on: SNB-19; assay: IC50 human glioma/astrocytoma cell lines (alamar Blue), SNB-19; conditions: Homo sapiens, SNB-19
Experimental: (§10) Cell lines were obtained from the Human Tissue Culture Collection (ATCC), grown and maintained under ATCC-specified conditions, and tested to ensure viability and lack of contaminating mycoplasma and common viruses. […] A viability stain (alamar Blue) was added to cells after 4-7 days of drug exposure (approximately 4 doublings of control cells; maximum cell density in wells approximately 80%), and assayed for total cellular metabolic activity (a function of population density of live cells) by absorbance.

[16] = tested on: SF-268; assay: IC50 human glioma/astrocytoma cell lines (alamar Blue), SF-268
Experimental: as §10

[17] = tested on: SF-295; assay: IC50 human glioma/astrocytoma cell lines (alamar Blue), SF-295
Experimental: as §10

SMILES | IC50 [1] [nM] | IC50 [2] [nM] | IC50 [3] [nM] | IC50 [4] [nM] | IC50 [5] [nM] | IC50 [6] [nM] | average number of tumors per injection site [7] | mean tumor volume [7] | emerging resistance: ratio of IC50 to IC50 of parental generation [8] | emerging resistance: ratio of IC50 to IC50 of parental generation [9] | IC50 [15] [nM] | IC50 [16] [nM] | IC50 [17] [nM] | further results
S=C(N/N=C1/CCCc2cccnc21)N1CCN(c2ccccn2)CC1 [COTI-2] | 156 | 221 | 101 | 121 | 176 | 236 | 0.28 | 9.9 mm^3 | less than 1 | less than 1 | 8 | 66 | 184 | IC50 ([10]; NCI-H292, 72 h): 3.9 nM; IC50 ([11]; HCT-116, 72 h): 3.6 nM; IC50 ([12]; COLO 205, read-out: Mean IC50, single agent): 4.7 nM; IC50 ([13]; HCT-15, read-out: Mean IC50, single agent): 8.3 nM; IC50 ([14]; SW-620, read-out: Mean IC50, single agent): 165 nM
CN1CCN(C(=S)NN=C2c3ncccc3-c3cccnc32)CC1 [COTI-219] | 787 | 367 | 421 | 403 | 222 | 374 | 0.38 | 53+/−28 mm^3 | little to no emerging resistance | little to no emerging resistance | 1990 | 1170 | 2390 | IC50 ([10]; NCI-H292, H292, NSCLC, EGFR - WT, 72 h): 20 nM; IC50 ([11]; HCT-116, Colon, KRAS - MUT, 72 h): 8.7 nM; IC50 ([12]; COLO-205, Colon, KRAS - WT, read-out: Mean IC50, single agent): 4.3 nM; IC50 ([13]; HCT-15, Colon, KRAS - MUT, read-out: Mean IC50, single agent): 5.1 nM; IC50 ([14]; SW-620, SW620, Colon, KRAS - MUT, read-out: Mean IC50, single agent): 7.4 nM
